Here are results for six molecules from patent US10093611B2, “Benzocycloalkenes as antifungal agents” (Bayer Intellectual Property GmbH, priority 2010, dated 2018).

Series [1] is described as follows: log P by HPLC on reversed-phase column (C 18), EEC Directive 79/831 Annex V.A8. The format is physicochemical. The note with it: C 18 reversed phase, 40° C., 0.1% aqueous formic acid and acetonitrile gradient. Here is the method:
In table 1, the log P values were determined in accordance with EEC Directive 79/831 Annex V.A8 by HPLC (High Performance Liquid Chromatography) on a reversed-phase column (C 18), using the method described below: Temperature: 40° C.; Mobile phases: 0.1% aqueous formic acid and acetonitrile; linear gradient from 10% acetonitrile to 90% acetonitrile. Calibration was carried out using unbranched alkan-2-ones (comprising 3 to 16 carbon atoms) with known log P values (determination of the log P values by the retention times using linear interpolation between two successive alkanones). lambda-max-values were determined using UV-spectra from 200 nm to 400 nm and the peak values of the chromatographic signals.

The next series deals with Sphaerotheca fuliginea. Nature of the series: In vivo preventive test on Sphaerotheca fuliginea (cucumbers). The note with it: 100 ppm of active ingredient, evaluated 7 days after inoculation. On the procedure:
EXAMPLE H: IN VIVO PREVENTIVE TEST ON SPHAEROTHECA FULIGINEA (CUCUMBERS) Solvent: 24.5 parts by weight of acetone • 24.5 parts by weight of N,N-dimethylacetamide Emulsifier: 1 part by weight of alkylaryl polyglycol ether To produce a suitable preparation of active compound, 1 part by weight of active compound is mixed with the stated amounts of solvent and emulsifier, and the concentrate is diluted with water to the desired concentration. To test for protect activity, young plants are sprayed with the preparation of active compound at the stated rate of application. After the spray coating has dried on, the plants are inoculated with an aqueous spore suspension of Sphaerotheca fuliginea. The plants are then placed in a greenhouse at approximately 23° C. and a relative atmospheric humidity of approximately 70%. The test is evaluated 7 days after the inoculation. 0% means an efficacy which corresponds to that of the untreated control, while an efficacy of 100% means that no disease is observed. Under these conditions, high (at least 90%) to total protection is observed at a dose of 100 ppm of active ingredient with the following compounds from table H: Under the same conditions, high protection (greater than 80%) is observed at a dose of 500 ppm of active ingredient with compound 7, whereas poor protection (less than 20%) is observed with the isosteric analogue compound CMP2 claimed in WO-2009/016218 as in table H2.

A further series relates to Alternaria solani. Description: In vivo preventive test on Alternaria solani (tomato). The conditions noted are these: 500 ppm of active ingredient, evaluated 7 days after inoculation. Here is the method: EXAMPLE A: IN VIVO PREVENTIVE TEST ON ALTERNARIA SOLANI (TOMATO) Solvent: 49 parts by weight of N,N-dimethylformamide Emulsifier: 1 part by weight of Alkylarylpolyglycolether To produce a suitable preparation of active compound, 1 part by weight of active compound is mixed with the stated amounts of solvent and emulsifier, and the concentrate is diluted with water to the desired concentration. To test for preventive activity, young plants are sprayed with the preparation of active compound at the stated rate of application. One day after this treatment, the plants are inoculated with an aqueous spore suspension of Alternaria solani. The plants remain for one day in an incubation cabinet at approximately 22° C. and a relative atmospheric humidity of 100%. Then the plants are placed in an incubation cabinet at approximately 20° C. and a relative atmospheric humidity of 96%. The test is evaluated 7 days after the inoculation. 0% means an efficacy which corresponds to that of the control while an efficacy of 100% means that no disease is observed. Under these conditions, good (at least 80%) to total protection is observed at a dose of 500 ppm of active ingredient with the following compounds from table A: […]

In a further series the test system is Uromyces appendiculatus. Description: In vivo preventive test on Uromyces appendiculatus (beans). The note with it: 100 ppm of active ingredient, evaluated 10 days after inoculation. On the procedure: (§1) EXAMPLE I: IN VIVO PREVENTIVE TEST ON UROMYCES APPENDICULATUS (BEANS) Solvent: 24.5 parts by weight of acetone • 24.5 parts by weight of N,N-dimethylacetamide Emulsifier: 1 part by weight of alkylaryl polyglycol ether To produce a suitable preparation of active compound, 1 part by weight of active compound is mixed with the stated amounts of solvent and emulsifier, and the concentrate is diluted with water to the desired concentration. To test for preventive activity, young plants are sprayed with the preparation of active compound at the stated rate of application. After the spray coating has dried on, the plants are inoculated with an aqueous spore suspension of the causal agent of bean rust (Uromyces appendiculatus) and then remain for 1 day in an incubation cabinet at approximately 20° C. and a relative atmospheric humidity of 100%. The plants are then placed in a greenhouse at approximately 21° C. and a relative atmospheric humidity of approximately 90%. The test is evaluated 10 days after the inoculation. 0% means an efficacy which corresponds to that of the untreated control, while an efficacy of 100% means that no disease is observed. Under these conditions, excellent (at least 95%) to total protection is observed at a dose of 100 ppm of active ingredient with the following compounds from table I: […]

The test system of another series is Venturia inaequalis. Description: In vivo preventive test on Venturia inaequalis (apples). The conditions noted are these: 100 ppm of active ingredient, evaluated 10 days after inoculation. Here is the method: as §1, with “J:” for “I:”, “VENTURIA INAEQUALIS (APPLES)” for “UROMYCES APPENDICULATUS (BEANS)”, “conidia” for “spore”, “apple scab (Venturia inaequalis)” for “bean rust (Uromyces appendiculatus)”, “conditions,” for “conditions, excellent (at least 95%) to”

In general, logP refers to a log measure of how a compound divides between an organic and an aqueous phase. In series [1], `Cc1nn(C)c(F)c1C(=O)N(C1CC1)C(C)C1Cc2ccccc2C1` (stereo not shown) [Example 11] came in with a logP of 3.25. The Efficacy in the series with Sphaerotheca fuliginea worked out at 92%; in the series with Alternaria solani it was 100%; with Uromyces appendiculatus, 100%; in the series with Venturia inaequalis, 100%.

For `CCc1nn(C)c(F)c1C(=O)N(C1CC1)C(C)C1Cc2ccccc2C1` (stereo not shown) [Example 12], the logP in series [1] is given as 3.67. Besides, the Efficacy in the series with Sphaerotheca fuliginea is on record as 95%; in the series on Alternaria solani, 100%; in the series with Uromyces appendiculatus it was 100%; in the series with Venturia inaequalis, 100%.

For the molecule `CC(C1Cc2ccccc2C1)N(C(=O)c1cn(C)nc1C(F)F)C1CC1` (stereo not shown) [Example 13], in series [1], the logP was 3.33. Further, the Efficacy in the series with Sphaerotheca fuliginea was 95%; in the series with Alternaria solani it was 100%; with Uromyces appendiculatus it was 98%; in the series on Venturia inaequalis it was 100%.

Usually chromatographic logP stands for a lipophilicity value derived from retention on a column. Read a low chromatographic logP as lower lipophilicity. Molecule `CC(C1Cc2ccccc2C1)N(C(=O)c1c(C(F)F)nn(C)c1F)C1CC1` (stereo not shown) [Example 14, N-cyclopropyl-3-(difluoromethyl)-N-[1-(indan-2-yl)ethyl]-5-fluoro-1-methyl-1H-pyrazole-4-carboxamide] displayed a chromatographic logP in series [1] (reversed-phase HPLC column (C 18)) of 3.76. The figures for the Efficacy with Sphaerotheca fuliginea, with Alternaria solani and in the series with Venturia inaequalis were 100%, 95% and 100%, respectively.

The molecule `CC(C1CCc2ccccc2C1)N(C(=O)c1c(C(F)F)nn(C)c1F)C1CC1` (stereo not shown) [Example 16] had a logP in series [1] of 3.99. In addition, the values for the Efficacy in the series with Sphaerotheca fuliginea, in the series on Alternaria solani and in the series with Venturia inaequalis were 100%, 95% and 100%, respectively.

Molecule `CCC(C1CCc2ccccc2C1)N(C(=O)c1c(C(F)F)nn(C)c1F)C1CC1` (stereo not shown) [Example 17] showed a lipophilicity (logP) in series [1] of 4.41. This molecule registered an Efficacy in the series on Alternaria solani of 80%.
